Structures are written as SMILES.

The source of these data is patent publication US9670161B2, “5-fluoro-N-(pyridin-2-yl)pyridin-2-amine derivatives containing a sulfone group” (BAYER PHARMA AKTIENGESELLSCHAFT, priority 2012, dated 2017).

In experiment [1] the target is CDK9/CycT1 (Homo sapiens (Human), UniProt P50750). The experiment can be described thus: CDK9/CycT1 high ATP kinase assay (TR-FRET, 2 mM ATP). The format is biochemical. Conditions: Method 1b. How it is done: 1b. CDK9/CycT1 High ATP Kinase Assay
Sequence of CDK9/CycT1 (P50750 whole entry): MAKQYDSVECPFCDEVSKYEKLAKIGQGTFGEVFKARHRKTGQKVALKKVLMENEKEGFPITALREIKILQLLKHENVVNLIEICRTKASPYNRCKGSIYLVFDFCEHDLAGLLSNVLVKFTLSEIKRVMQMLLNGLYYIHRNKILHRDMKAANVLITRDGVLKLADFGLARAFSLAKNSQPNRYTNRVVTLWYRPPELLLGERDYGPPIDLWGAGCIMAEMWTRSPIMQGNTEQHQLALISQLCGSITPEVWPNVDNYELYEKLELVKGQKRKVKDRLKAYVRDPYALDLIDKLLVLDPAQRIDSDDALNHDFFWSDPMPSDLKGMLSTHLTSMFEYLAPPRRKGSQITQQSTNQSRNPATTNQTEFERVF
Sequence of CDK9/CycT1 (O60563 whole entry partner): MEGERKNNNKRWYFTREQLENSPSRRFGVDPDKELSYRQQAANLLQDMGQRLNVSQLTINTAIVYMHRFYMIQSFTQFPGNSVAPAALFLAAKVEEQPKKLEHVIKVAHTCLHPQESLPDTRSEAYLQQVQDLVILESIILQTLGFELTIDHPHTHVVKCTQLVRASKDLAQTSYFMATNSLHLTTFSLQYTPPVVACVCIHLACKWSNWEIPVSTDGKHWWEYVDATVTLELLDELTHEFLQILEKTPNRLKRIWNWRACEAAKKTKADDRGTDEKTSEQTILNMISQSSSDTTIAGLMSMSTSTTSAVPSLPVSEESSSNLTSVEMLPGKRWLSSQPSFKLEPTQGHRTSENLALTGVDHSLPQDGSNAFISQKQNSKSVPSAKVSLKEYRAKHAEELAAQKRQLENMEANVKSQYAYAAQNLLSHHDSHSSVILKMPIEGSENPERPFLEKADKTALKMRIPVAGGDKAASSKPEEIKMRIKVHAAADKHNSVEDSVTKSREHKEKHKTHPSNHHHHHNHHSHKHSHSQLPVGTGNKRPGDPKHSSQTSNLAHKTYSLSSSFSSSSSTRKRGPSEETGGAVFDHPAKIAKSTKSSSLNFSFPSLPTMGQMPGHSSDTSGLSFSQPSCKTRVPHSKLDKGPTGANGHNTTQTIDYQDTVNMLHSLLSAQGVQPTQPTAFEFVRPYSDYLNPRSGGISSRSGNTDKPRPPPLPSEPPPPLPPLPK
CDK9/CycT1-inhibitory activity of compounds of the present invention at a high ATP concentration after preincubation of enzyme and test compounds was quantified employing the CDK9/CycT1 TR-FRET assay as described in the following paragraphs.
Recombinant full-length His-tagged human CDK9 and CycT1, expressed in insect cells and purified by Ni-NTA affinity chromatography, were purchase from Invitrogen (Cat. No PV4131). As substrate for the kinase reaction biotinylated peptide biotin-Ttds-YISPLKSPYKISEG (C-terminus in amid form) was used which can be purchased e.g. form the company JERINI peptide technologies (Berlin, Germany).
(§1) For the assay 50 nl of a 100 fold concentrated solution of the test compound in DMSO was pipetted into a black low volume 384 well microtiter plate (Greiner Bio-One, Frickenhausen, Germany), 2 μl of a solution of CDK9/CycT1 in aqueous assay buffer [50 mM Tris/HCl pH 8.0, 10 mM MgCl2, 1.0 mM dithiothreitol, 0.1 mM sodium ortho-vanadate, 0.01% (v/v) Nonidet-P40 (Sigma)] were added and the mixture was incubated for 15 min at 22° C. to allow pre-binding of the test compounds to the enzyme before the start of the kinase reaction. Then the kinase reaction was started by the addition of 3 μl of a solution of adenosine-tri-phosphate (ATP, 3.3 mM=>final conc. in the 5 μl assay volume is 2 mM) and substrate (1.67 μM=>final conc. in the 5 μl assay volume is 1 μM) in assay buffer and the resulting mixture was incubated for a reaction time of 25 min at 22° C. The concentration of CDK9/CycT1 was adjusted depending of the activity of the enzyme lot and was chosen appropriate to have the assay in the linear range, typical concentrations were in the range of 0.5 μg/mL. The reaction was stopped by the addition of 5 μl of a solution of TR-FRET detection reagents (0.2 μM streptavidine-XL665 [Cisbio Bioassays, Codolet, France] and 1 nM anti-RB(pSer807/pSer811)-antibody from BD Pharmingen [#558389] and 1.2 nM LANCE EU-W1024 labeled anti-mouse IgG antibody [Perkin-Elmer, product no. AD0077]) in an aqueous EDTA-solution (100 mM EDTA, 0.2% (w/v) bovine serum albumin in 100 mM HEPES/NaOH pH 7.0).
The resulting mixture was incubated 1 h at 22° C. to allow the formation of complex between the phosphorylated biotinylated peptide and the detection reagents. Subsequently the amount of phosphorylated substrate was evaluated by measurement of the resonance energy transfer from the Eu-chelate to the streptavidine-XL. Therefore, the fluorescence emissions at 620 nm and 665 nm after excitation at 350 nm was measured in a HTRF reader, e.g. a Rubystar (BMG Labtechnologies, Offenburg, Germany) or a Viewlux (Perkin-Elmer). The ratio of the emissions at 665 nm and at […] was taken as the measure for the amount of phosphorylated substrate. The data were normalised (enzyme reaction without inhibitor=0% inhibition, all other assay components but no enzyme=100% inhibition).
(In general: In TR-FRET formats the signal depends on donor and acceptor labels being close together.)

In experiment [2] the target is CDK2/CycE (Homo sapiens (Human), UniProt P24941). The experiment can be described thus: CDK2/CycE high ATP kinase assay (TR-FRET, 2 mM ATP). To be noted: Method 2b. Type of experiment: biochemical. How it is done:
2b. CDK2/CycE High ATP Kinase Assay
CDK2/CycE-inhibitory activity of compounds of the present invention at 2 mM adenosine-tri-phosphate (ATP) was quantified employing the CDK2/CycE TR-FRET (TR-FRET=Time Resolved Fluorescence Energy Transfer) assay as described in the following paragraphs.
Recombinant fusion proteins of GST and human CDK2 and of GST and human CycE, expressed in insect cells (Sf9) and purified by Glutathion-Sepharose affinity chromatography, were purchase from ProQinase GmbH (Freiburg, Germany). As substrate for the kinase reaction biotinylated peptide biotin-Ttds-YISPLKSPYKISEG (C-terminus in amid form) was used which can be purchased e.g. form the company JERINI peptide technologies (Berlin, Germany).
as §1, with “of CDK2/CycE” for “of CDK9/CycT1”, “solution ATP (3.33” for “solution of adenosine-tri-phosphate (ATP, 3.3”, “substrate (1.25” for “substrate (1.67”, “is 0.75” for “is 1”, “of 15 ng/ml.” for “of 0.5 μg/mL.”, “no. AD0077, as an alternative a Terbium-cryptate-labeled anti-mouse IgG antibody from Cisbio Bioassays can be used])” for “no. AD0077])”
The resulting mixture was incubated 1 h at 22° C. to allow the formation of complex between the phosphorylated biotinylated peptide and the detection reagents. Subsequently the amount of phosphorylated substrate was evaluated by measurement of the resonance energy transfer from the Eu-chelate to the streptavidine-XL. Therefore, the fluorescence emissions at 620 nm and 665 nm after excitation at 350 nm were measured in a TR-FRET reader, e.g. a Rubystar (BMG Labtechnologies, Offenburg, Germany) or a Viewlux (Perkin-Elmer). The ratio of the emissions at 665 nm and at […] was taken as the measure for the amount of phosphorylated substrate. The data were normalised (enzyme reaction without inhibitor=0% inhibition, all other assay components but no enzyme=100% inhibition).

As to `COc1cc(F)ccc1-c1cc(Nc2cc(CS(C)(=O)=O)ccn2)ncc1F` [Example 1, 5-Fluoro-4-(4-fluoro-2-methoxyphenyl)-N-{4-[(methylsulfonyl)methyl]pyridin-2-yl}pyridin-2-amine], the IC50 in experiment [1] is 2 nM; in experiment [2], 2180 nM.

Turning to `COc1cc(F)ccc1-c1cc(Nc2cc(CS(C)(=O)=O)cc(C)n2)ncc1F` [Example 2, 5-Fluoro-4-(4-fluoro-2-methoxyphenyl)-N-{6-methyl-4-[(methylsulfonyl)methyl]pyridin-2-yl}pyridin-2-amine], the results for the IC50 in experiment [1] and in experiment [2] were 2 nM and 625 nM, respectively.

On to `COc1cc(F)ccc1-c1cc(Nc2cc(CS(C)(=O)=O)cc(F)n2)ncc1F` [Example 3, 5-Fluoro-4-(4-fluoro-2-methoxyphenyl)-N-{6-fluoro-4-[(methylsulfonyl)methyl]pyridin-2-yl}pyridin-2-amine], for which the figures for the IC50 in experiment [1] and in experiment [2] were 2 nM and 787 nM, respectively.

With `COc1cc(F)ccc1-c1cc(Nc2cc(CS(C)(=O)=O)cc(C(F)(F)F)n2)ncc1F` [Example 4, 5-Fluoro-4-(4-fluoro-2-methoxyphenyl)-N-{4-[(methylsulfonyl)methyl]-6-(trifluoromethyl)pyridin-2-yl}pyridin-2-amine], the IC50 in experiment [1] is 3 nM; in experiment [2] it was 169 nM.

For `COc1cc(F)ccc1-c1cc(Nc2cc(CS(C)(=O)=O)cc(C(F)F)n2)ncc1F` [Example 5, N-{6-(Difluoromethyl)-4-[(methylsulfonyl)methyl]pyridin-2-yl}-5-fluoro-4-(4-fluoro-2-methoxyphenyl)pyridin-2-amine], the IC50 was determined as 1 nM in experiment [1] and 103 nM in experiment [2].

By IC50 is commonly meant the concentration at which inhibition is half-maximal.
